Values after ≈ are worked out from the molar mass of the structure shown. Read-outs that look alike come from different tables or passages of the source. Numbered stars: 1 amine (or outer) side, 2 acyl side, 3 side chain; on linkers, the order of the positions; unused ones are H or OH. Bridge positions count the residues as written; N and C are the ends. Square brackets hold non-standard residues; d marks the D form. Peptide text beside a SMILES is read from it. * marks the point of attachment. Trp(7-Me) = Cc1cccc2c(C[C@H](N)C(=O)O)c[nH]c12; NH(CH2)9CO = O=C(CCCCCCCCCN[*:1])[*:2]; 2Nal = N[C@@H](Cc1ccc2ccccc2c1)C(=O)O; Suberoyl = O=C(CCCCCCC(=O)[*:2])[*:1]; C12 diacid = O=C(O)CCCCCCCCCCC(=O)*; X1 = O=C(CCCCCCCCCCCCCN[*:1])[*:2]; 3Pal = N[C@@H](Cc1cccnc1)C(=O)O; Thp = NC1(C(=O)O)CCOCC1; Me2NCH2CH2 = CN(C)CC*; Aib = CC(C)(N)C(=O)O; Sar = CNCC(=O)O
Experiments:
[1] = Solubility of peptide compounds in buffer formulations (Table 5); type: physicochemical; settings: target 1 mg/ml
How it was run: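 Solubility was quantified by UHPLC-UV, comparing 1:10-diluted filtrate peak areas with a DMSO reference standard and correcting for extinction coefficients. Samples were prepared from dried DMSO stock at 1 mg/mL nominal in pH 1.2 HCl, pH 6.5 or pH 7.4 phosphate (50 mM), and agitated 2 h.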

[2] = Protease stability in simulated gastric fluids (FaSSGF) (Table 7); type: in vitro ADME; settings: fassgf with pepsin, 60 min, 37° C., read-out: Remaining percentage of peptide compound, FaSSGF 60 (min)
How it was run: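 Peptides at 1 μM final were incubated at 37 °C in simulated gastric fluid with pepsin (320 mg per 100 mL SGF concentrate). Samples were quenched with ethanol (0.1% HCOOH) at 0, 60, 120 and 240 min and analysed by LC-MS/MS. Percent remaining is the peak area relative to T0 (100%).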

human IL-23R = biological target: T1, human IL-23R (Homo sapiens, UniProt Q5VWK5); test: Inhibition of IL-23 binding to IL-23R as measured by ELISA (Table 8); settings: human IL23 coated 1 μg/ml; human IL-23R-Fc 0.1 μg/ml; 60 min; read-out: Human ELISA IL23/IL23R IC50
T1 sequence (Q5VWK5 24-353 limits assumed): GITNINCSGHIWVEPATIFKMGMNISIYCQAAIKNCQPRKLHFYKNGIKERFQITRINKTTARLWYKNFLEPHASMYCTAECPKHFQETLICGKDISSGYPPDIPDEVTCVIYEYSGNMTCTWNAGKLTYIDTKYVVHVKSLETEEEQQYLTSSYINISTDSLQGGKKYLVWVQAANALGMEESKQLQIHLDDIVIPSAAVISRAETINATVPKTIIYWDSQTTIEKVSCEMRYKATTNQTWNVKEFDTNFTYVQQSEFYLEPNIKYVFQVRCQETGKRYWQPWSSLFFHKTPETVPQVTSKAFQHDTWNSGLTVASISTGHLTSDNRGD
Method: Antagonism of compounds for human interleukin-23 receptor inhibitors, was determined by an ELISA assay.
A 384-well plate was coated with 50 μl/well of human IL23 at a final concentration of 1 μg/ml and incubated overnight at 4° C. The wells were washed 3 times with 80 μl wash buffer and blocked with 80 μl blocking buffer for 60 minutes at room temperature and washed again. 20 μl of serially diluted test peptides was added to each well and subsequently 20 μl of recombinant human IL-23R-Fc chimera at final concentration of 0.1 μg/ml. The plate was incubated for 60 minutes at room temperature. After the wells were washed, bound IL23R-Fc was detected with goat anti-hu-IgG1-HRP antibody. Signals were visualized with QUANTABLU fluorogenic peroxidase substrate.

[3] = Chemical stability (relative purity loss) of peptide compounds in buffer formulations (Table 6); type: physicochemical; settings: 2° C. and 37° C.
How it was run: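 Compounds at 0.5 mg/mL in 50 mM HCl pH 1.2, 50 mM phosphate pH 6.5 or pH 7.4, each with acetonitrile (3:1), stored 24 hours at 2° C and 37° C. Purity measured by UHPLC-UV before and after. Stability expressed as relative purity loss.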

[4] = Buffer pH 1.1 (head; method: 50 mM HCl pH 1.2), 2 h agitation, read-out: Solubility, Buffer pH 1.1
[5] = aqueous buffer, 50 mM phosphate buffer pH 6.5, 2 h agitation, read-out: Solubility, Buffer pH 6.5
[6] = aqueous buffer, 50 mM phosphate buffer pH 7.4, 2 h agitation, read-out: Solubility, Buffer pH 7.4
[7] = 50 mM phosphate buffer pH 6.5 + acetonitrile (3:1), read-out: Chemical stability (relative purity loss), Buffer pH 6.5
[8] = 50 mM phosphate buffer pH 7.4 + acetonitrile (3:1), read-out: Chemical stability (relative purity loss), Buffer pH 7.4
[9] = 50 mm hcl + acetonitrile, Buffer pH 1.1 (head; method: 50 mM HCl pH 1.2 + acetonitrile 3:1), read-out: Chemical stability (relative purity loss), Buffer pH 1.1

Row | SMILES | solubility at 2 h [1, 4] | solubility at 2 h [1, 5] | solubility at 2 h [1, 6] | remaining at 1 h, 1 µM [2] | IC50 (human IL-23R) | degraded at 24 h [3, 7] | degraded at 24 h [3, 8] | degraded at 24 h [3, 9]
1 | Cc1cccc2c(C[C@@H]3NC(=O)CCCCCCCCCCCCCNC(=O)CC[C@@H](C(=O)N[C@@H](CC(N)=O)C(=O)N[C@@H](Cc4cccnc4)C(=O)N(C)CC(N)=O)NC(=O)C(C)(C)NC(=O)[C@H](Cc4ccc5ccccc5c4)NC(=O)[C@H](Cc4ccc(OCCN(C)C)cc4)NC(=O)C4(CCOCC4)NC(=O)[C@H](CCC(N)=O)NC3=O)c[nH]c12 [compound 1] ([X1][Trp(7-Me)]Q[Thp]Y(Me2NCH2CH2)[2Nal][Aib]EN[3Pal][Sar]-NH2; lactam N-8) | ≥ 920 µg/mL | < 10 µg/mL | < 10 µg/mL | 77% | 0.3 nM | 0% | 0% | 6.2%
2 | Cc1cccc2c(C[C@@H]3NC(=O)CCCCCCCCCNC(=O)CC[C@@H](C(=O)N[C@@H](CC(N)=O)C(=O)N[C@@H](Cc4cccnc4)C(=O)N(C)CC(N)=O)NC(=O)C(C)(C)NC(=O)[C@H](Cc4ccc5ccccc5c4)NC(=O)[C@H](Cc4ccc(OCCN(C)C)cc4)NC(=O)C4(CCOCC4)NC(=O)[C@H](CC(C)C)NC3=O)c[nH]c12 [compound 8] ([NH(CH2)9CO][Trp(7-Me)]L[Thp]Y(Me2NCH2CH2)[2Nal][Aib]EN[3Pal][Sar]-NH2; lactam N-8) | 20 µg/mL (≈ 12.6 µM) | < 10 µg/mL | < 10 µg/mL | 7% | 1.69 nM | 0% | 0% | 6.2%
3 | Cc1cccc2c(C[C@@H]3NC(=O)CCCCCCC(=O)NCCCC[C@@H](C(=O)N[C@@H](CC(N)=O)C(=O)N[C@@H](Cc4cccnc4)C(=O)N(C)CC(N)=O)NC(=O)C(C)(C)NC(=O)[C@H](Cc4ccc5ccccc5c4)NC(=O)[C@H](Cc4ccc(OCCN(C)C)cc4)NC(=O)C4(CCOCC4)NC(=O)[C@H](CCC(N)=O)NC3=O)c[nH]c12 [compound 12] ([Trp(7-Me)]Q[Thp]Y(Me2NCH2CH2)[2Nal][Aib]KN[3Pal][Sar]-NH2; linker N-7 via Suberoyl) | ≥ 1050 µg/mL | ≥ 1100 µg/mL | ≥ 1150 µg/mL | 104% | 0.61 nM | 0% | 0% | 12%
4 | CC(=O)NCCCC[C@@H]1NC(=O)[C@H](Cc2c[nH]c3c(C)cccc23)NC(=O)[C@@H](NC(C)=O)CCCCN(C)CCCCN(C)CCCC[C@@H](C(=O)N[C@@H](CC(N)=O)C(=O)N[C@@H](Cc2cccnc2)C(=O)N(C)CC(N)=O)NC(=O)C(C)(C)NC(=O)[C@@H](Cc2ccc3ccccc3c2)NC(=O)[C@H](Cc2ccc(OCCN(C)C)cc2)NC(=O)C2(CCOCC2)NC1=O [compound 13] | ≥ 1190 µg/mL | ≥ 1180 µg/mL | ≥ 1230 µg/mL | 90% | 0.41 nM | 0% | 0% | 3.1%
5 | Cc1cccc2c(C[C@@H]3NC(=O)CCCCCCCCCCC(=O)NCCCC[C@@H](C(=O)N[C@@H](CC(N)=O)C(=O)N[C@@H](Cc4cccnc4)C(=O)N(C)CC(N)=O)NC(=O)C(C)(C)NC(=O)[C@H](Cc4ccc5ccccc5c4)NC(=O)[C@H](Cc4ccc(OCCN(C)C)cc4)NC(=O)C4(CCOCC4)NC(=O)[C@H](CCC(N)=O)NC3=O)c[nH]c12 [compound 10] ([Trp(7-Me)]Q[Thp]Y(Me2NCH2CH2)[2Nal][Aib]KN[3Pal][Sar]-NH2; linker N-7 via C12 diacid) | ≥ 890 µg/mL | 240 µg/mL (≈ 146 µM) | 70 µg/mL (≈ 42.6 µM) | 88% | 0.55 nM | 0% | 0% | 6.1%

— patent US20260297129A1, “PEPTIDES AS SELECTIVE IL-23 RECEPTOR INHIBITORS” (SANOFI, priority 2023, published 2026)
